Results from patent US20180273528A1 (LES LABORATOIRES SERVIER, priority 2015, published 2018).

Assays:
[1] = biological target: T1, DYRK1A (Homo sapiens, UniProt Q13627); assay: Cellular DYRK1 autophosphorylation assay in U2-OS cells; assay type: cell-based; design: full-length, wild-type human DYRK1A (NM_001396) with an HA tag; expressed in transfected cells; host or cells: human U2-OS osteosarcoma cells, transient transfection of a pcDNA3.1 plasmid; settings: U2-OS cells transfected with HA-tagged human DYRK1A, 5 hours exposure; read-out: IC50 (μM) P-Ser520-Dyrk1A -Cell assay
In short: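 IC50 derived from dose-response curves of phospho-Ser520-DYRK1A (blots normalised to total DYRK1A), quantified by either immunoblotting with chemiluminescence or Mesoscale electrochemiluminescent ELISA. Compounds applied to U2-OS cells across several concentrations for 5 hours.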

[2] = biological target: T2, His-TEV-DYRK1A Kinase domain (aa127-485) (Homo sapiens, UniProt Q13627); assay: Kinase ADP assay (ADP Hunter), DYRK1A kinase domain; assay type: biochemical; settings: 20 μM ATP
T2 construct: His-TEV-DYRK1A Kinase domain (aa127-485); His tag (N); TEV protease cleavage site (N)
In short: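 Readout is ADP Hunter fluorescence at 590 nm, developed 20 min at 30 °C after the kinase step. That step ran 10 min at 30 °C in Hepes pH 7.4 (10 mM MgCl2, 1 mM EGTA, 0.02% Tween20) containing 20 μM ATP, 40 μM peptide and 20 nM enzyme plus compound.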

[3] = biological target: T3, CDK9 (Homo sapiens, UniProt P50750); assay: Kinase TR-FRET assay, CDK9; assay type: biochemical; settings: full-length human kinase, 10 μM ATP
T3 construct: full-length human kinases from Carna Biosciences; purchased Carna Biosciences 04-110
Experimental: Inhibition of the enzymatic activity of human kinases was evaluated in a Time-Resolved Fluorescence Resonance Energy Transfer (TR-FRET) assay in 384-well reaction plates. In this assay, full-length human kinases from Carna Biosciences—DYRK1A (NM_001396, ref. 04-130; 2.0 ng/μl), DYRK1B (NM_004714, ref. 04-131; 1.2 ng/p), CLK1 (NM_001162407, ref. 04-126; 0.7 ng/μl), CDK9 (NM_001261, ref. 04-110; 0.9 ng/μl), or GSK3β (NM_001146156, ref. 04-141; 2.0 ng/μl—were incubated for 40 minutes (DYRK1A and DYRK1B) or 100 minutes (CLK1, CDK9 and GSK3β) at room temperature with ATP (Sigma A2383, 10 μM) and a ULight™-labelled human Myelin Basic Protein (MBP) peptide substrate (Perkin Elmer TRF0109, 100 nM) in a reaction buffer composed of 50 mM HEPES pH7.4, 1 mM EGTA, 10 mM MgCl2, 2 mM DTT and 0.01% Tween20. Test compounds of the invention were added in reaction buffer at a range of concentrations from 0.1 nM to 30 μM. Following addition of EDTA (Sigma E7889, 10 mM) to stop the reaction, Europium-labelled mouse monoclonal antibody recognizing phospho-Thr232 in MBP (Perkin Elmer TRF0201, 1 nM) was added. After one hour, the reaction plates were read using a fluorescence reader (EnVision®, Perkin Elmer) at 620 nm and 665 nm (excitation at 340 nm); when the Europium donor fluorophore is excited by light at 340 nm, an energy transfer (620 nm) to the acceptor occurs, which will then emit light at 665 nm.

[4] = biological target: T1, DYRK1A; assay: Kinase TR-FRET assay, DYRK1A; assay type: biochemical; design: full-length, wild-type human DYRK1A (NM_001396) with an HA tag; expressed in transfected cells; host or cells: human U2-OS osteosarcoma cells, transient transfection of a pcDNA3.1 plasmid; settings: full-length human kinase, 10 μM ATP
Experimental: (§1) Inhibition of the enzymatic activity of human kinases was evaluated in a Time-Resolved Fluorescence Resonance Energy Transfer (TR-FRET) assay in 384-well reaction plates. […] Test compounds of the invention were added in reaction buffer at a range of concentrations from 0.1 nM to 30 μM. Following addition of EDTA (Sigma E7889, 10 mM) to stop the reaction, Europium-labelled mouse monoclonal antibody recognizing phospho-Thr232 in MBP (Perkin Elmer TRF0201, 1 nM) was added.

[5] = biological target: T4, DYRK1B (Homo sapiens, UniProt Q9Y463); assay: Kinase TR-FRET assay, DYRK1B; assay type: biochemical; settings: full-length human kinase, 10 μM ATP
T4 construct: full-length human kinases from Carna Biosciences; purchased Carna Biosciences 04-131
Experimental: as §1

T3 sequence (P50750 whole entry): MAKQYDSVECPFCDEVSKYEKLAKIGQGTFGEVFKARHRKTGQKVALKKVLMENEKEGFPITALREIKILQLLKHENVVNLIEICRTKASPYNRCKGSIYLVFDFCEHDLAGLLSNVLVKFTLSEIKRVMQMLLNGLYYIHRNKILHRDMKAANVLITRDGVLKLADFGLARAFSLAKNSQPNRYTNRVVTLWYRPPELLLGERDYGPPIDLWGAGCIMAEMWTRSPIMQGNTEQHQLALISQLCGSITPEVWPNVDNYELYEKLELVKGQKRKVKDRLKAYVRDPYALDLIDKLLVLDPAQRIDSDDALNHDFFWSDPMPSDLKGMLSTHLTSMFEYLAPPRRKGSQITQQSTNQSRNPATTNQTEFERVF
T3 sequence (O60563 whole entry partner): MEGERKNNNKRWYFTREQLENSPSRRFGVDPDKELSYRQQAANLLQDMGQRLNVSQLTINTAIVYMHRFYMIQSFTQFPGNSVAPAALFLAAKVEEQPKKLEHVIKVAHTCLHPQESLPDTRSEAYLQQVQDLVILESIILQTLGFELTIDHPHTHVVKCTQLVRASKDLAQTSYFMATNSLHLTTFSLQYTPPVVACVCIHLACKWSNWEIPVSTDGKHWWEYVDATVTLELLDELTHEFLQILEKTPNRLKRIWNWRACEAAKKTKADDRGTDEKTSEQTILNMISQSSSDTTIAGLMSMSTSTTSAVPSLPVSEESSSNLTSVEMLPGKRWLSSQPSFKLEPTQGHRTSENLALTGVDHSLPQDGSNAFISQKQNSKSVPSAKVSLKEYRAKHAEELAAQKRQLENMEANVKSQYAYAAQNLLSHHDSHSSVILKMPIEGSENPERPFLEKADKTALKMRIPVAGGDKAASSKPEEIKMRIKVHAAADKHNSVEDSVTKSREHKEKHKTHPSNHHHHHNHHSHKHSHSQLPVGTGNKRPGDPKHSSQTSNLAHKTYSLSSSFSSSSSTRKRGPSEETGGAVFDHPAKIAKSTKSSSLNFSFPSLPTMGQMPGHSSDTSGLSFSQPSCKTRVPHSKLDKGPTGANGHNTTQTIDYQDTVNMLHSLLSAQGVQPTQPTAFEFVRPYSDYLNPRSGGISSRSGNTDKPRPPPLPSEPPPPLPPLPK
T4 sequence (Q9Y463 whole entry): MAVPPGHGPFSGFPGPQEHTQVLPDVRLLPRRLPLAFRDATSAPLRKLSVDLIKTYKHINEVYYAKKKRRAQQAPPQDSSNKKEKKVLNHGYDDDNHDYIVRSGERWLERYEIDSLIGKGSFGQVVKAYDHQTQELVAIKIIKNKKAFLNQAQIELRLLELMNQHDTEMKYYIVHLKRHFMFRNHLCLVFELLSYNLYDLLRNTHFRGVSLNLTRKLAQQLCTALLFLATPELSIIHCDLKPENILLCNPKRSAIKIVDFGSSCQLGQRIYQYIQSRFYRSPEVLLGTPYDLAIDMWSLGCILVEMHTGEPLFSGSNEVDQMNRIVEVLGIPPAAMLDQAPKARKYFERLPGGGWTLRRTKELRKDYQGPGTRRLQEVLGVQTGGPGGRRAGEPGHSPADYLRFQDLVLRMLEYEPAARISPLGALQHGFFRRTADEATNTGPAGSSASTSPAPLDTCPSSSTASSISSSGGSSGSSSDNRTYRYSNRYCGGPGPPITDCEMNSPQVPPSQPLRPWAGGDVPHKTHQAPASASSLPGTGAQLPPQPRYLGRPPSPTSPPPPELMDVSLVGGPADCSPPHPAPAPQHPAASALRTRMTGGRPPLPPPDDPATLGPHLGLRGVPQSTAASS

SMILES	IC50 [1] [µM]	IC50 [2] [µM]	IC50 [3] [µM]	IC50 [4] [µM]	IC50 [5] [µM]
Cc1nc2ccc(-c3cc(N)nc(N)c3)nc2n1CCO [Example 3, 2-[5-(2,6-diaminopyridin-4-yl)-2-methyl-3H-imidazo[4,5-b]pyridin-3-yl]ethanol]	0.23	0.02	2.57	0.02	
Cc1nc2ccc(-c3cc(N)nc(N)c3)nc2n1C [Example 4, 4-(2,3-dimethyl-3H-imidazo[4,5-b]pyridin-5-yl)pyridine-2,6-diamine]	0.25	0.011	1.26	0.015	
Cc1nc2ccc(-c3cc(N)nc(N)c3)nc2n1Cc1ccncc1 [Example 5, 4-[2-methyl-3-(pyridin-4-ylmethyl)-3H-imidazo[4,5-b]pyridin-5-yl]pyridine-2,6-diamine]	1	0.02	6.56	0.006	
Cc1nc2ccc(-c3cc(N)nc(N)c3)nc2n1Cc1ccccn1 [Example 6, 4-[2-methyl-3-(pyridin-2-ylmethyl)-3H-imidazo[4,5-b]pyridin-5-yl]pyridine-2,6-diamine]		0.493	1.09	0.155	0.149
Cc1nc2ccc(-c3cc(N)nc(N)c3)nc2n1Cc1cccnc1 [Example 7, 4-[2-methyl-3-(pyridin-3-ylmethyl)-3H-imidazo[4,5-b]pyridin-5-yl]pyridine-2,6-diamine]		0.079	2.38	0.07	
Cc1nc2ccc(-c3cc(N)nc(N)c3)nc2n1Cc1ccc(F)cc1 [Example 10, 4-[3-(4-fluorobenzyl)-2-methyl-3H-imidazo[4,5-b]pyridin-5-yl]pyridine-2,6-diamine]		0.079	4.58	0.032	0.055
Cc1nc2ccc(-c3cc(N)nc(N)c3)nc2n1CC1CC1 [Example 11, 4-[3-(cyclopropylmethyl)-2-methyl-3H-imidazo[4,5-b]pyridin-5-yl]pyridine-2,6-diamine]	0.17	0.011	3.45	0.004	
Cc1nc2ccc(-c3cc(N)nc(N)c3)nc2n1CCCN1CCCC1=O [Example 13, 1-{3-[5-(2,6-diaminopyridin-4-yl)-2-methyl-3H-imidazo[4,5-b]pyridin-3-yl]propyl}pyrrolidin-2-one]		0.035	> 10	0.012	0.019
Cc1nc2ccc(-c3cc(N)nc(N)c3)nc2n1Cc1cccs1 [Example 20, 4-[2-methyl-3-(thiophen-2-ylmethyl)-3H-imidazo[4,5-b]pyridin-5-yl]pyridine-2,6-diamine]		0.032	2.92	0.016	0.016
Cc1nc2ccc(-c3cc(N)nc(N)c3)nc2n1CCc1cnn(-c2ccccc2)c1 [Example 21, 4-{2-methyl-3-[2-(1-phenyl-1H-pyrazol-4-yl)ethyl]-3H-imidazo[4,5-b]pyridin-5-yl}pyridine-2,6-diamine]		0.053	12.5	0.015	
CC(=O)Nc1ccc(CCn2c(C)nc3ccc(-c4cc(N)nc(N)c4)nc32)cc1 [Example 24, N-(4-{2-[5-(2,6-diaminopyridin-4-yl)-2-methyl-3H-imidazo[4,5-b]pyridin-3-yl]ethyl}phenyl)acetamide]		0.008	3.53	0.005	0.015
Cc1nc2ccc(-c3cc(N)nc(N)c3)nc2n1CCc1cccs1 [Example 26, 4-{2-methyl-3-[2-(thiophen-2-yl)ethyl]-3H-imidazo[4,5-b]pyridin-5-yl}pyridine-2,6-diamine]		0.007	1.82	0.004	0.006
Cc1nc2ccc(-c3cc(N)nc(N)c3)nc2n1CCOc1cccc2ccccc12 [Example 27, 4-{2-methyl-3-[2-(naphthalen-1-yloxy)ethyl]-3H-imidazo[4,5-b]pyridin-5-yl}pyridine-2,6-diamine]		0.056	> 10	0.015	0.005
Cc1nc2ccc(-c3cc(N)nc(N)c3)nc2n1CC(F)(F)F [Example 28, 4-[2-methyl-3-(2,2,2-trifluoroethyl)-3H-imidazo[4,5-b]pyridin-5-yl]pyridine-2,6-diamine]			5.7		
Cc1nc2ccc(-c3cc(N)nc(N)c3)nc2n1CC(C)(C)C [Example 30, 4-[3-(2,2-dimethylpropyl)-2-methyl-3H-imidazo[4,5-b]pyridin-5-yl]pyridine-2,6-diamine]		0.018	3.57	0.017	0.125
CCC(C)Cn1c(C)nc2ccc(-c3cc(N)nc(N)c3)nc21 (stereo not shown) [Example 34, 4-[2-methyl-3-(2-methylbutyl)-3H-imidazo[4,5-b]pyridin-5-yl]pyridine-2,6-diamine]		0.01	1.4	0.03	0.015
Cc1nc2ccc(-c3cc(N)nc(N)c3)nc2n1Cc1ccccc1Cl [Example 47, 4-[3-(2-chlorobenzyl)-2-methyl-3H-imidazo[4,5-b]pyridin-5-y]pyridine-2,6-diamine]		0.025	0.728	0.003	0.046
Cc1nc2ccc(-c3cc(N)nc(N)c3)nc2n1Cc1cc(OC(F)(F)F)ccc1F [Example 50, 4-{3-[2-fluoro-5-(trifluoromethoxy)benzyl]-2-methyl-3H-imidazo[4,5-b]pyridin-5-yl}pyridine-2,6-diamine]		0.057	1.99	0.029	
Cc1nc2ccc(-c3cc(N)nc(N)c3)nc2n1C(C)C [Example 53, 4-[2-methyl-3-(propan-2-yl)-3H-imidazo[4,5-b]pyridin-5-yl]pyridine-2,6-diamine]			1.31		
Cc1nc2ccc(-c3cc(N)nc(N)c3)nc2n1CC1CCCCC1 [Example 55, 4-[3-(cyclohexylmethyl)-2-methyl-3H-imidazo[4,5-b]pyridin-5-yl]pyridine-2,6-diamine]	0.16	0.024		0.002	0.021
Cc1nc2ccc(-c3cc(N)nc(N)c3)nc2n1C12CC3CC(CC(C3)C1)C2 [Example 56, 4-{2-methyl-3-tricyclo[3.3.1.1^3,7]dec-1-yl-3H-imidazo[4,5-b]pyridin-5-yl}pyridine-2,6-diamine]		0.015	0.357	0.009	
Cc1nc2ccc(-c3cc(N)nc(N)c3)nc2n1Cc1cc(Cl)ccc1Cl [Example 57, 4-[3-(2,5-dichlorobenzyl)-2-methyl-3H-imidazo[4,5-b]pyridin-5-yl]pyridine-2,6-diamine]		0.085	> 10	0.026	0.005
CCCc1nc2ccc(-c3cc(N)nc(N)c3)nc2n1C1CCCC1 [Example 160, 4-(3-cyclopentyl-2-propyl-3H-imidazo[4,5-b]pyridin-5-yl)pyridine-2,6-diamine]	0.144	0.024		0.003	0.068
